“Also recorded” adds a separate entry of the source. Like-named read-outs stand apart in the source and are kept apart here.
Columns and labels:
Ishikawa cells [1] = assay: Cell morphology by Giemsa staining; type: cell-based, human; details: 72 h, 5 μM Mito6_TPP, 20 μM Mito6_picol., 10 μM Mito6_isoq.
Protocol: (§1) Morphological changes in all cell lines were evaluated by phase-contrast microscopy (Eclipse TS100 Inverted Microscope, Nikon, Tokyo, Japan) and Giemsa staining. […] The cells were plated in 24-well plates with coverslips using the densities of 1 × 10^5 cells/well in Ishikawa and Hec50co and 2.5 × 10^5 cells/well in COV434 and HFF-1. After adherence, the cells were treated with Mito6_TPP (5 μM), Mito6_picol. (20 μM), or Mito6_isoq. (10 μM) and incubated at 37 °C with 5% CO2 for 72 h. For Giemsa staining, the cells were fixated with paraformaldehyde 4% in Phosphate Buffered Saline (PBS) for 15 min, stained with Giemsa solution for 30 min, mounted with DPX, and observed through bright field microscopy. For Höechst staining, the cells were incubated with 0.5 μg/mL Höechst 33342 in PBS for 20 min in the dark, mounted in Fluoroshield, and observed under a fluorescence microscope equipped with an excitation filter with maximum transmission at 360/400 nm. In both stainings, the cells were observed using the microscope Eclipse CI (Nikon, Japan) and the images were processed with Nikon NIS Elements Image Software (Nikon, Japan).

COV434 cells [2] = assay: Cell morphology by Giemsa staining; type: cell-based, human; details: COV434, 72 h; 5 μM Mito6_TPP, 20 μM Mito6_picol., 10 μM Mito6_isoq.
Protocol: as §1

HFF-1 cells [3] = assay: Neutral red (NR) cell viability assay; type: cell-based; details: Homo sapiens
Protocol: (§2) Experiments were performed using the following cell lines: Ishikawa, Hec50co, COV434, and HFF-1. The Ishikawa cell line (RRID: CVCL_2529) was established from an endometrial adenocarcinoma. The Hec50co cell line (RRID: CVCL_4Y59) consists of poorly differentiated endometrial tumor cells isolated from a patient with advanced disease. Both the Ishikawa and Hec50co cell lines were kindly provided by Dr. Kim K. Leslie (The University of New Mexico Health Sciences Center, Albuquerque, NM, USA). COV434 (RRID: CVCL_2010) were initially isolated from a patient diagnosed with a granulosa cell tumor but were recently classified as cells from a small-cell carcinoma of the ovary, hypercalcemic type.The COV434 cells were purchased from the European Collection of Authenticated Cell Cultures (ECACC) (#07071909). HFF-1 (RRID: CVCL_3285) is an immortalized human foreskin fibroblasts cell line, obtained from the American Type Culture Collection (ATCC), which was used as control, as they are non-tumorous cells. The Ishikawa and Hec50co cells were maintained in Dulbecco’s Modified Eagle Medium/F12 (DMEM/F12) supplemented with 5% Foetal Bovine Serum (FBS). COV434 cells were maintained in DMEM/F12 supplemented with 10% FBS. HFF-1 were maintained in Roswell Park Memorial Institute 1640 (RPMI 1640) supplemented with 10% FBS. All mediums were supplemented with 1% AB-AM and all cells were kept at 37 °C with 5% CO2. The treatment with the compounds was done in the respective cell medium supplemented with 2% FBS and 24 h after platting the cells in the culture medium with 5% FBS to allow their adherence.
(§3) The Ishikawa, Hec50co, COV434, and HFF-1 cell lines were plated at a density of 5 × 10^4 cells/well in transparent 96-well plates. After 24 h, the cells were treated with Mito6_TPP, Mito6_picol., or Mito6_isoq. (0.01–100 μM) and incubated at 37 °C with 5% CO2 for 24, 48, or 72 h. […] The conditions of the methylthiazolyldiphenyl-tetrazolium bromide (MTT) assay were adapted from the work of Banerjee et al.. Briefly, MTT was added to a final concentration of 0.5 mg/mL, and the cells were incubated for 3 h at 37 °C with 5% CO2. After the 3 h, purple MTT formazan crystals were dissolved by agitation for 15 min in a solution of DMSO/isopropanol (ratio 3:1) and quantified spectrophotometrically at 540 nm. The neutral red (NR) assay conditions were based on the work developed by Repetto et al.. Briefly, after the incubation time, cells were incubated with NR at 40 μg/mL in an FBS-free cell medium for 3 h. The cells were then incubated with a solution of 50% ethanol (96% v/v), 49% deionized water, and 1% glacial acetic acid, with shaking for 15 min. The NR extracted from the cells was measured at 540 nm. The LDH cytotoxicity assay was not performed on the HFF-1 cells due to the lack of evidence of cell death at the concentrations tested. After the incubation time, this assay was performed using a Thermo Scientific Pierce LDH Cytotoxicity Assay Kit according to the manufacturer’s instructions. For all assays, the absorbance was read using a BioTek Synergy HTX Multi-Mode Microplate Reader equipped with BioTek Gen5 Data Collection and Analysis Software (BioTek Instruments, Winooski, VT, USA).
(§4) Data were evaluated using the one- or two-way analysis of variance (ANOVA) test followed by Bonferroni’s test for multiple comparisons. The data presented was expressed as mean ± SEM (Standard Error of the Mean) of a minimum of three and a maximum of seven independent experiments performed in triplicate. Values of p < 0.05 were considered statistically significant. Half of the maximal effective concentration (EC50) values were estimated by interpolation of dose-response curves and reported as a mean with a 95% confidence interval (CI 95%). All statistical analysis was performed using GraphPad Prism Software 8.0 (GraphPad Software, Inc., San Diego, CA, USA). […]

Ishikawa cells [4] = assay: Neutral red (NR) cell viability assay; type: cell-based; details: Homo sapiens
Protocol: as §2, §3, §4

Hec50co cells [5] = assay: Neutral red (NR) cell viability assay; type: cell-based; details: Homo sapiens
Protocol: as §2, §3, §4

HFF-1 cells [6] = assay: MTT cell viability assay; type: cell-based; details: Homo sapiens
Protocol: as §2, §3, §4

Ishikawa cells [7] = assay: MTT cell viability assay; type: cell-based; details: Homo sapiens
Protocol: as §2, §3, §4

Hec50co cells [8] = assay: MTT cell viability assay; type: cell-based; details: Homo sapiens
Protocol: as §2, §3, §4

COV434 cells [9] = assay: MTT cell viability assay; type: cell-based; details: Homo sapiens
Protocol: as §2, §3, §4

[10] = 24 h, read-out: EC50 (decrease of viability), NR assay
[11] = 48 h, read-out: EC50 (decrease of viability), NR Assay
[12] = 72 h, read-out: EC50 (decrease of viability), NR assay
[13] = 24 h, read-out: EC50 (decrease of viability), MTT assay
[14] = 48 h, read-out: EC50 (decrease of viability), MTT Assay
[15] = 72 h, read-out: EC50 (decrease of viability), MTT assay
[16] = COV434, 24 hours of incubation, read-out: EC50 (decrease of viability), MTT assay
[17] = COV434, 48 h of incubation, read-out: EC50 (decrease of viability), MTT Assay
[18] = COV434, 72 hours of incubation, read-out: EC50 (decrease of viability), MTT assay
[19] = HFF-1, 48 h of incubation, read-out: EC50 (decrease of viability), NR Assay
[20] = 24 hours of incubation, read-out: EC50 (decrease of viability), NR assay
[21] = 48 h of incubation, read-out: EC50 (decrease of viability), NR Assay
[22] = 72 hours of incubation, read-out: EC50 (decrease of viability), NR assay
[23] = Hec50co, 24 hours of incubation, read-out: EC50 (decrease of viability), NR assay
[24] = Hec50co, 48 h of incubation, read-out: EC50 (decrease of viability), NR Assay
[25] = Hec50co, 72 hours of incubation, read-out: EC50 (decrease of viability), NR assay
[26] = HFF-1, 48 h of incubation, read-out: EC50 (decrease of viability), MTT Assay
[27] = 24 hours of incubation, read-out: EC50 (decrease of viability), MTT assay
[28] = 48 h of incubation, read-out: EC50 (decrease of viability), MTT Assay
[29] = 72 hours of incubation, read-out: EC50 (decrease of viability), MTT assay
[30] = Hec50co, 24 hours of incubation, read-out: EC50 (decrease of viability), MTT assay
[31] = Hec50co, 48 h of incubation, read-out: EC50 (decrease of viability), MTT Assay
[32] = Hec50co, 72 hours of incubation, read-out: EC50 (decrease of viability), MTT assay

Row | Structure (SMILES) | Cell morphology changes (Giemsa staining) (Ishikawa cells [1]) | Cell morphology changes (Giemsa staining) (COV434 cells [2]) | EC50 (COV434 cells [9]; [16]) [µM] | EC50 (COV434 cells [9]; [17]) [µM] | EC50 (COV434 cells [9]; [18]) [µM] | EC50 (HFF-1 cells [3]; [19]) [µM] | EC50 (Ishikawa cells [4]; [20]) [µM] | EC50 (Ishikawa cells [4]; [21]) [µM] | EC50 (Ishikawa cells [4]; [22]) [µM] | EC50 (Hec50co cells [5]; [23]) [µM] | EC50 (Hec50co cells [5]; [24]) [µM] | EC50 (Hec50co cells [5]; [25]) [µM] | EC50 (HFF-1 cells [6]; [26]) [µM] | EC50 (Ishikawa cells [7]; [27]) [µM] | EC50 (Ishikawa cells [7]; [28]) [µM] | EC50 (Ishikawa cells [7]; [29]) [µM] | EC50 (Hec50co cells [8]; [30]) [µM] | EC50 (Hec50co cells [8]; [31]) [µM] | EC50 (Hec50co cells [8]; [32]) [µM] | also measured
1 | O=C(/C=C/c1ccc(O)c(O)c1)NCCCCCCCCCC[P+](c1ccccc1)(c1ccccc1)c1ccccc1 [Mito6_TPP] | altered cell shapes and indications of chromatin condensation | altered cell shapes and indications of chromatin condensation | 4.64 | 2.37 | 0.577 |  |  |  |  |  |  |  |  |  |  |  |  |  |  | EC50 (HFF-1 cells [3]; HFF-1, 24 h, read-out: EC50 (decrease of viability), NR assay): 73.6 µM; EC50 (HFF-1 cells [3]; HFF-1, 48 h, read-out: EC50 (decrease of viability), NR Assay): 57 µM; EC50 (HFF-1 cells [3]; HFF-1, 72 h, read-out: EC50 (decrease of viability), NR assay): 45.1 µM; EC50 (Ishikawa cells [4]; [10]): 33.2 µM; EC50 (Ishikawa cells [4]; [11]): 15.7 µM; EC50 (Ishikawa cells [4]; [12]): 11.2 µM; EC50 (Hec50co cells [5]; [10]): 53.6 µM; EC50 (Hec50co cells [5]; [11]): 35.4 µM; EC50 (Hec50co cells [5]; [12]): 23.9 µM; EC50 (HFF-1 cells [6]; HFF-1, 24 h, read-out: EC50 (decrease of viability), MTT assay): > 100 µM; EC50 (HFF-1 cells [6]; HFF-1, 48 h, read-out: EC50 (decrease of viability), MTT Assay): 44.5 µM; EC50 (HFF-1 cells [6]; HFF-1, 72 h, read-out: EC50 (decrease of viability), MTT assay): 37 µM; EC50 (Ishikawa cells [7]; [13]): 9.14 µM; EC50 (Ishikawa cells [7]; [14]): 2.45 µM; EC50 (Ishikawa cells [7]; [15]): 0.925 µM; EC50 (Hec50co cells [8]; [13]): 7.75 µM; EC50 (Hec50co cells [8]; [14]): 1.87 µM; EC50 (Hec50co cells [8]; [15]): 0.847 µM
2 | O=C(/C=C/c1ccc(O)c(O)c1)NCCCCCCCCCC[n+]1ccc2ccccc2c1 [Mito6_isoq.] | cell shape alterations | cell shape alterations; also recorded: indications of chromatin condensation | 29.5 | 7.16 | 3.16 | 97 | 55.3 | 36.9 | 28.9 | > 100 | 150 | 87.6 | > 100 | 29.9 | 15.4 | 7.16 | 19 | 9.55 | 6.59 | EC50 (HFF-1 cells [3]; HFF-1, 24 hours of incubation, read-out: EC50 (decrease of viability), NR assay): > 100 µM; EC50 (HFF-1 cells [3]; HFF-1, 72 hours of incubation, read-out: EC50 (decrease of viability), NR assay): 68.6 µM
3 | Cc1cc[n+](CCCCCCCCCCNC(=O)/C=C/c2ccc(O)c(O)c2)cc1 [Mito6_picol.] | did not induce any morphological changes | did not induce any morphological changes | 53.2 | 15.9 | 6.6 | > 100 | > 100 | 84.4 | 59.4 | > 100 | 197 | 92 | > 100 | 42.9 | 23.6 | 10.8 | 27.3 | 13.8 | 17.2 | 
